Assay results reported in patent publication US11407711B2, “Benzamide compound and use thereof” (METISA BIOTECHNOLOGY CO., LTD., priority 2018, dated 2022).
Where two headings read alike, the source gives them in different places.

Key:
Type in all cases: in vivo
Chilo suppressalis = assay: Insecticidal activity against Chilo suppressalis (spray on rice seedlings, stems fed to larvae); conditions: for pest or weed control at 1 µg/mL / pest or weed control at 4 µg/mL / pest or weed control at 40 µg/mL: Chilo suppressalis, 72 h, read-out: fatality rate against Chilo suppressalis
Procedure: (§1) The compound to be tested was dissolved by a mixed solvent of acetone/methanol (1:1), and then diluted by water containing 0.1% (wt) Tween 80 to the required concentration.
(§2) An Airbrush spray method was adopted for the determination of the activity, with armyworm, Plutella xylostella and Chilo suppressalis as targets.
Determination method: 1) preparation of rice seedlings: rice was cultivated in small plastic cups (diameter: 4.5 cm and height: 4 cm) at a constant temperature room (temperature: 26-28° C., relative humidity: 60-80% around and illumination: 16 hL:8 hD), after the rice grew to a 4-5 leaf stage, vigorous and uniform-growth rice seedlings were selected and treated with an insecticide, 3 repeats for each treatment. 2) Preparation of pests for test: 3rd-instar larvaes of Chilo suppressalis fed continuously in the room. 3) Inoculation of pests on rice stems by spray. The whole plants of the rice seedlings were sprayed by a spray method uniformly, with the dose of 15 ml for each treatment. The blank control was treated first, and the above operation was repeated in an order of lower to higher test concentration. After sprayed, rice seedlings were placed in the shade to dry the insecticide liquor, and then stalks about 5 cm above the basal part of the stems were cut to be fed to the pests for test. Glass petri dishes (diameter: […]) were prepared, cushioned by filter paper at the bottom thereof, and subjected to water addition for moisturizing; about 20 pieces of rice stems were put in each dish and inoculated with 10 larvaes; then the petri dishes were closed by non-woven fabrics and placed in a constant temperature room for culture. The number of survivals was surveyed 3 d after administration.

armyworm = assay: Insecticidal activity against armyworm (Airbrush spray on maize blade segments); conditions: 72 h, read-out: fatality rate against armyworm
Procedure: as §1, §2
Determination method: maize blades were cut into 2 cm (length) segments; with the pressure of Airbrush spray being 10 psi (about 0.7 kg/cm^2), both sides of each blade segment were sprayed with the amount of 0.5 ml. After dried in the shade, each segment was inoculated with 10 3rd-instar larvaes, 3 repeats for each segment. And then, the treated segments were put into an observation room (25° C., relative humidity: 60-70%) for cultivation; the number of the survivals was surveyed 1 d, 2 d and 3 d after administration, and then the death rate was calculated.

Plutella xylostella = assay: Insecticidal activity against Plutella xylostella (Airbrush spray on cabbage leaf discs); conditions: for pest or weed control at 10 µg/mL: read-out: Fatality rate (%, 3 d after administration) 10 mg/L, Table 71, 10 mg/L, 3 d after administration
Procedure: as §1, §2
Determination method: cabbage blades were punched into 2 cm (diameter) leaf discs by a puncher; with the pressure of Airbrush spray being 10 psi (about 0.7 kg/cm^2), both sides of each leaf disc were sprayed with the amount of 0.5 ml. After dried in the shade, each leaf disc was inoculated with 10 3rd-instar larvaes, 3 repeats for each leaf disc. And then, the treated leaf discs were put into an observation room (25° C., relative humidity: 60-70%) for cultivation; the number of the survivals was surveyed 1 d, 2 d and 3 d after administration, and then the death rate was calculated.

[1] = Plutella xylostella, foliar, 72 h
[2] = Plutella xylostella, foliar, 72 h, read-out: fatality rate against Plutella xylostella, 0.5 mg/L, 3 d after administration
[3] = Plutella xylostella, foliar, 72 h, read-out: fatality rate against Plutella xylostella, 1 mg/L, 3 d after administration
[4] = Table 75, fast-acting efficacy, dose 0.5 mg/L
[5] = Table 76, fast-acting efficacy, dose 0.05 mg/L

Structure (SMILES) | pest or weed control at 1 µg/mL (Chilo suppressalis) | pest or weed control at 4 µg/mL (Chilo suppressalis) | pest or weed control at 40 µg/mL (Chilo suppressalis) | pest or weed control at 0.05 µg/mL (armyworm) | pest or weed control at 0.1 µg/mL (armyworm) | pest or weed control at 0.5 µg/mL (armyworm) | pest or weed control at 10 µg/mL (Plutella xylostella; [1]) | pest or weed control at 0.5 µg/mL (Plutella xylostella; [2]) | pest or weed control at 1 µg/mL (Plutella xylostella; [3]) | other results
N#CCN(C(=O)c1ccccc1)c1cccc(C(=O)Nc2c(Br)cc(C(F)(C(F)(F)F)C(F)(F)F)cc2Br)c1F [Compound 2.321] | ≥ 90% | ≥ 90% | ≥ 90% | ≥ 90% | ≥ 90% | ≥ 90% | 100% | ≥ 90% | ≥ 90% | Fatality rate (%, 3 d after administration) 1.25 mg/L (Chilo suppressalis; Table 77, 1.25 mg/L, 3 d after administration): 95.5%; Fatality rate (%, 3 d after administration) 2.5 mg/L (Chilo suppressalis; Table 77, 2.5 mg/L, 3 d after administration): 100%; Fatality rate (%, 3 d after administration) 5 mg/L (Chilo suppressalis; Table 77, 5 mg/L, 3 d after administration): 100%; pest or weed control at 0.5 µg/mL (Plutella xylostella; Plutella xylostella, foliar, 72 h, read-out: Fatality rate (%, 3 d after administration) 0.5 mg/L, Table 73, 0.5 mg/L, 3 d after administration): 100%; pest or weed control at 1 µg/mL (Plutella xylostella; Plutella xylostella, foliar, 72 h, read-out: Fatality rate (%, 3 d after administration) 1 mg/L, Table 73, 1 mg/L, 3 d after administration): 100%; Fatality rate (%) 1 d after administration (Plutella xylostella; [4]): 80%; Fatality rate (%) 2 d after administration (Plutella xylostella; [4]): 95%; Fatality rate (%) 3 d after administration (Plutella xylostella; Table 75, fast-acting efficacy, dose 0.5 mg/L, 3 d after administration): 100%
N#CCN(C(=O)c1ccccc1)c1cccc(C(=O)Nc2c(Cl)cc(C(F)(C(F)(F)F)C(F)(F)F)cc2Cl)c1F [Compound 3.321] |  | ≥ 90% | ≥ 90% |  | ≥ 90% | ≥ 90% | 100% |  | ≥ 90% | 
Cc1cc(C(F)(C(F)(F)F)C(F)(F)F)cc(Br)c1NC(=O)c1cccc(N(CC#N)C(=O)c2ccccc2)c1F [Compound 6.321] |  |  | ≥ 90% |  |  | ≥ 90% | 100% |  | ≥ 90% | pest or weed control at 1 µg/mL (Plutella xylostella; Plutella xylostella, foliar, 72 h, read-out: Fatality rate (%, 3 d after administration) 1 mg/L, Table 72, 1 mg/L, 3 d after administration): 98.5%; Fatality rate (%, 3 d after administration) 5 mg/L (Plutella xylostella; Table 72, 5 mg/L, 3 d after administration): 100%
N#CCN(C(=O)c1ccccc1)c1cccc(C(=O)Nc2c(Cl)cc(C(F)(C(F)(F)F)C(F)(F)F)cc2Br)c1F [Compound 7.321] |  | ≥ 90% | ≥ 90% |  | ≥ 90% | ≥ 90% | 100% |  | ≥ 90% | 
N#CCN(C(=O)c1ccccc1)c1cccc(C(=O)Nc2c(Br)cc(C(F)(C(F)(F)F)C(F)(F)F)cc2I)c1F [Compound 8.321] |  | ≥ 90% | ≥ 90% |  | ≥ 90% | ≥ 90% | 100% |  | ≥ 90% | 
N#CCN(C(=O)c1ccccc1)c1cccc(C(=O)Nc2c(Br)cc(C(F)(C(F)(F)F)C(F)(F)F)cc2C(F)(F)F)c1F [Compound 9.321] | ≥ 90% | ≥ 90% | ≥ 90% | ≥ 90% | ≥ 90% | ≥ 90% | 100% | ≥ 90% | ≥ 90% | Fatality rate (%, 3 d after administration) 0.625 mg/L (Chilo suppressalis; Table 78, 0.625 mg/L, 3 d after administration): 98%; Fatality rate (%, 3 d after administration) 1.25 mg/L (Chilo suppressalis; Table 78, 1.25 mg/L, 3 d after administration): 100%; Fatality rate (%, 3 d after administration) 2.5 mg/L (Chilo suppressalis; Table 78, 2.5 mg/L, 3 d after administration): 100%; pest or weed control at 0.5 µg/mL (Plutella xylostella; Plutella xylostella, foliar, 72 h, read-out: Fatality rate (%, 3 d after administration) 0.5 mg/L, Table 74, 0.5 mg/L, 3 d after administration): 100%; pest or weed control at 0.05 µg/mL (Plutella xylostella; Plutella xylostella, foliar, 72 h, read-out: fatality rate against Plutella xylostella, 0.05 mg/L, 3 d after administration): ≥ 90%; Fatality rate (%, 3 d after administration) 0.05 mg/L (Plutella xylostella; Table 74, 0.05 mg/L, 3 d after administration): 100%; Fatality rate (%) 1 d after administration (Plutella xylostella; [5]): 70%; Fatality rate (%) 2 d after administration (Plutella xylostella; [5]): 95%; Fatality rate (%) 3 d after administration (Plutella xylostella; Table 76, fast-acting efficacy, dose 0.05 mg/L, 3 d after administration): 100%
